Results taken from patent publication US20220153746A1, “NITROGEN OXIDE-DONATING PDE-5 AND/OR PDE-6 INHIBITOR COMPOUNDS, AND USES THEREOF” (ILDONG PHARMACEUTICAL CO., LTD., priority 2020, published 2022).
Read-outs that look alike come from different tables or passages of the source.

Assays:
human PDE-5A1 = human PDE-5A1 (Homo sapiens, UniProt O76074); assay: Human PDE-5A1 inhibition assay (fluorescence polarization, FAM-cGMP); type: biochemical; settings: read-out: IC50 (μM) PDE5A1
[1] = PK Phase (Group 2): plasma concentrations and pharmacokinetics of Compound 18 and its metabolite Compound 4 after once daily ocular instillation of Compound 18 nanosuspension for 7 days; type: in vivo, New Zealand white rabbits; settings: for Cmax / Tmax / AUC(0-t) / half-life: male, New Zealand white, rabbit, plasma, topical or ocular, 0.8 mg/kg; for AUC(0-t): read-out: AUC0-24; for Day 1 Compound 4 Plasma Concentration / Day 7 Compound 4 Plasma Concentration: metabolite after Compound 18 dosing
From the text: This example illustrates the procedures and results for the levels of Compound 18 and its metabolite Compound 4 in plasma and ocular tissues of normotensive rabbits following ocular instillation of Compound 18 once daily for 7 consecutive days.
Twenty five (25) male New Zealand white rabbits were divided into 5 groups of varying amounts of animals per group.
The Test article, Compound 18 was formulated as a 2% nanosuspension in DI water containing 0.2% PS80 (polyoxyethylenesorbitan, monooleate (Tween 80)) and 0.4% HPMC (hydroxypropylmethylcellulose) at pH 6.77. Referred to herein as “Compound 18 nanosuspension.”
The study consisted of three groups (Groups 1-3) of 19 male rabbits (NZW) that underwent once daily morning ocular installation (1 eyedrop) for 7 consecutive days (Day 0-6). Groups 4-5 each consisted of 3 male rabbits (NZW) that were not dosed.
Blood samples (1 mL) were collected from the jugular vein at the intervals set out below for each group. The samples were then inverted several times following collection and held on wet ice until centrifuged. Samples were centrifuged within 60 minutes of collection under refrigeration (set at 5° C. for 10 minutes at 2000 g. […]
Plasma and tissue samples from treated animals (Groups 1-3) were analyzed for Compound 18 and its metabolite Compound 4 concentrations by LC-MS/MS.
Pharmacokinetic analysis was conducted using WinNonlin Version 6.2.1 (Pharsight, Mountain View, Calif.), operating as a validated software system. Noncompartmental analysis was conducted using the extravascular administration model for ocular instillation dosing.
The peak plasma concentration, time to achieve peak plasma concentration, half-life, and area under the plasma concentration-time curve (Cmax, Tmax, T1/2, and AUC) were calculated from the PK phase individual animal plasma concentrations for each sampling time/dose group for Compound 18 and its metabolite Compound 4.
BA Assay: Quantitation Range 0.05 to 100 ng/mL for Compound 18, 0.15 to 100 ng/mL for Compound 4.
Plasma calibration standards (PLSTD-A) with Compound 18 concentrations ranging from 0.0500 to 100 ng/mL were prepared by spiking control rabbit plasma with appropriate calibration curve spiking solutions (SS-A). PLQC-A samples with concentrations of 0.150, 5.00, 50.0, and 80.0 ng/mL were prepared by spiking control rabbit plasma with appropriate SS-A-QC spiking solutions.
Plasma calibration standards (PLSTD-B) with Compound 4 concentrations ranging from 0.150 to 100 ng/mL were prepared by spiking control rabbit plasma with appropriate calibration curve spiking solutions (SS-B). PLQC-B samples with concentrations of 0.450, 5.00, 50.0, and 80.0 ng/mL were prepared by spiking control rabbit plasma with appropriate SS-B-QC spiking solutions. PLQC-B-Dil samples at 800 ng/mL were prepared by spiking control rabbit plasma with the SS-B-QC-Dil spiking solution at 16,000 ng/mL, and then diluted 20× with control rabbit plasma prior to extraction.
1. Thaw plasma standards, plasma QC samples, ocular tissue QC samples, incurred plasma samples and ocular tissue samples (AH/VH) (if applicable) on wet ice. Control plasma can be thawed in tepid water. Vortex before taking aliquots.
2. Pipet 50 μL of water for Reagent Blank, 50 μL of control plasma for Double Blank and Blank, 50 μL of pre-spiked plasma for Standards and QC samples, 50 μL of incurred plasma samples (if applicable) into a 96 well plate.
5. Add 200 μL of working internal standard (WIS) solution to all remaining samples.
6. Seal the plate and vortex for approximately 5 minutes. Centrifuge the plate at 3500 rpm for 10 minutes at ˜4° C.
7. Transfer ˜200 μL of each sample supernatant into the appropriate wells of a 96 well plate. Submit for LC MS/MS analysis.
A total of 25 rabbits were used for this study, including 19 treated rabbits and 6 control rabbits. […]

[2] = Day 1, Compound 18 0.8 mg/kg ocular instillation, Mean, n=4
[3] = Day 1, Compound 18 0.8 mg/kg ocular instillation, animal 207664
[4] = Day 1, Compound 18 0.8 mg/kg ocular instillation, animal 207665
[5] = Day 1, Compound 18 0.8 mg/kg ocular instillation, animal 207666
[6] = Day 1, Compound 18 0.8 mg/kg ocular instillation, animal 207667
[7] = Day 7, Compound 18 0.8 mg/kg ocular instillation, Mean, n=4
[8] = Day 7, Compound 18 0.8 mg/kg ocular instillation, animal 207664
[9] = Day 7, Compound 18 0.8 mg/kg ocular instillation, animal 207665
[10] = Day 7, Compound 18 0.8 mg/kg ocular instillation, animal 207666
[11] = Day 7, Compound 18 0.8 mg/kg ocular instillation, animal 207667

For `CCCc1nn(C)c2c(=O)[nH]c(-c3cc(S(=O)(=O)N4CC(CCCO)C4)ccc3OCC)nc12` [Compound 4, 5-(2-ethoxy-5-((3-(3-hydroxypropyl)azetidin-1-yl)sulfonyl)phenyl)-1-methyl-3-propyl-1,6-dihydro-7H-pyrazolo[4,3-d]pyrimidin-7-one], which IC50 (human PDE-5A1) is on record?
Its IC50 is less than 0.01 µM.

And the Cmax [1, 2]?
The Cmax was 0.944 ± 0.565 ng/mL.

And the Tmax [1, 2]?
The Tmax was 30 min.

What about the AUC(0-t) [1, 2] of the same molecule?
The AUC(0-t) was 1.14 ± 0.957 ng·h/mL.

And the Cmax [1, 3]?
The Cmax was 0.497 ng/mL.

What about the Tmax [1, 3] of the same molecule?
Its Tmax is 30 min.

What about the AUC(0-t) [1, 3] of the same molecule?
The AUC(0-t) was 0.575 ng·h/mL.

What about the Cmax [1, 4] of the same molecule?
The Cmax was 0.527 ng/mL.

What about the Tmax [1, 4] of the same molecule?
The Tmax was 30 min.

What about the half-life ([1]; Day 1, Compound 18 0.8 mg/kg ocular instillation, animal 207665 (one rabbit reportable)) of the same molecule?
The half-life was 24.8 min.

What about the AUC(0-t) [1, 4] of the same molecule?
Its AUC(0-t) is 0.321 ng·h/mL.

And the Cmax [1, 5]?
The Cmax was 1.7 ng/mL.

What about the Tmax [1, 5] of the same molecule?
Its Tmax is 30 min.

What about the AUC(0-t) [1, 5] of the same molecule?
Its AUC(0-t) is 2.46 ng·h/mL.

What about the Cmax [1, 6] of the same molecule?
Its Cmax is 1.05 ng/mL.

What about the Tmax [1, 6] of the same molecule?
Its Tmax is 30 min.

And the AUC(0-t) [1, 6]?
The AUC(0-t) was 1.18 ng·h/mL.

What about the half-life ([1]; Day 7, Compound 18 0.8 mg/kg ocular instillation, Mean, n=2) of the same molecule?
Its half-life is 79.2 ± 42.1 min.

What about the Cmax [1, 7] of the same molecule?
Its Cmax is 0.963 ± 0.17 ng/mL.

What about the Tmax [1, 7] of the same molecule?
The Tmax was 45 ± 17.4 min.

What about the AUC(0-t) [1, 7] of the same molecule?
Its AUC(0-t) is 1.71 ± 0.416 ng·h/mL.

And the Cmax [1, 8]?
Its Cmax is 0.851 ng/mL.

And the Tmax [1, 8]?
The Tmax was 30 min.

What about the AUC(0-t) [1, 8] of the same molecule?
Its AUC(0-t) is 1.13 ng·h/mL.

What about the Cmax [1, 9] of the same molecule?
Its Cmax is 0.938 ng/mL.

And the Tmax [1, 9]?
Its Tmax is 30 min.

And the half-life [1, 9]?
The half-life was 49.4 min.

And the AUC(0-t) [1, 9]?
The AUC(0-t) was 1.72 ng·h/mL.

What about the Cmax [1, 10] of the same molecule?
The Cmax was 0.851 ng/mL.

What about the Tmax [1, 10] of the same molecule?
Its Tmax is 60 min.

And the half-life [1, 10]?
The half-life was 109 min.

What about the AUC(0-t) [1, 10] of the same molecule?
The AUC(0-t) was 1.92 ng·h/mL.

And the Cmax [1, 11]?
The Cmax was 1.21 ng/mL.

And the Tmax [1, 11]?
Its Tmax is 60 min.

What about the AUC(0-t) [1, 11] of the same molecule?
The AUC(0-t) was 2.08 ng·h/mL.

And the “Day 1 Compound 4 Plasma Concentration” value ([1]; 2 h, animal 207665)?
The value was “BQL (BQL = Below lower limit of quantitation (0.0500 ng/mL for Compound 18 and 0.150 ng/mL for Compound 4))”.

What about the “Day 1 Compound 4 Plasma Concentration” value ([1]; 4 h, animal 207664) of the same molecule?
Its value is “BQL (BQL = Below lower limit of quantitation (0.0500 ng/mL for Compound 18 and 0.150 ng/mL for Compound 4))”.

What about the “Day 7 Compound 4 Plasma Concentration” value ([1]; 4 h, animal 207664) of the same molecule?
The value was “BQL (BQL = Below lower limit of quantitation (0.0500 ng/mL for Compound 18 and 0.150 ng/mL for Compound 4))”.

What about the “Day 1 Compound 4 Plasma Concentration” value ([1]; 4 h, animal 207665) of the same molecule?
Its value is “BQL (BQL = Below lower limit of quantitation (0.0500 ng/mL for Compound 18 and 0.150 ng/mL for Compound 4))”.

And the “Day 7 Compound 4 Plasma Concentration” value ([1]; 4 h, animal 207665)?
The value was “BQL (BQL = Below lower limit of quantitation (0.0500 ng/mL for Compound 18 and 0.150 ng/mL for Compound 4))”.

What about the “Day 1 Compound 4 Plasma Concentration” value ([1]; 4 h, animal 207667) of the same molecule?
Its value is “BQL (BQL = Below lower limit of quantitation (0.0500 ng/mL for Compound 18 and 0.150 ng/mL for Compound 4))”.

And the “Day 1 Compound 4 Plasma Concentration” value ([1]; 8 h, animal 207664)?
Its value is “BQL (BQL = Below lower limit of quantitation (0.0500 ng/mL for Compound 18 and 0.150 ng/mL for Compound 4))”.

What about the “Day 7 Compound 4 Plasma Concentration” value ([1]; 8 h, animal 207664) of the same molecule?
The value was “BQL (BQL = Below lower limit of quantitation (0.0500 ng/mL for Compound 18 and 0.150 ng/mL for Compound 4))”.

What about the “Day 1 Compound 4 Plasma Concentration” value ([1]; 8 h, animal 207665) of the same molecule?
Its value is “BQL (BQL = Below lower limit of quantitation (0.0500 ng/mL for Compound 18 and 0.150 ng/mL for Compound 4))”.

And the “Day 1 Compound 4 Plasma Concentration” value ([1]; 8 h, animal 207666)?
The value was “BQL (BQL = Below lower limit of quantitation (0.0500 ng/mL for Compound 18 and 0.150 ng/mL for Compound 4))”.

What about the “Day 7 Compound 4 Plasma Concentration” value ([1]; 8 h, animal 207666) of the same molecule?
Its value is “BQL (BQL = Below lower limit of quantitation (0.0500 ng/mL for Compound 18 and 0.150 ng/mL for Compound 4))”.

And the “Day 1 Compound 4 Plasma Concentration” value ([1]; 8 h, animal 207667)?
The value was “BQL (BQL = Below lower limit of quantitation (0.0500 ng/mL for Compound 18 and 0.150 ng/mL for Compound 4))”.

And the “Day 7 Compound 4 Plasma Concentration” value ([1]; 8 h, animal 207667)?
The value was “BQL (BQL = Below lower limit of quantitation (0.0500 ng/mL for Compound 18 and 0.150 ng/mL for Compound 4))”.

What about the “Day 1 Compound 4 Plasma Concentration” value ([1]; 24 h, animal 207664) of the same molecule?
Its value is “BQL (BQL = Below lower limit of quantitation (0.0500 ng/mL for Compound 18 and 0.150 ng/mL for Compound 4))”.

What about the “Day 7 Compound 4 Plasma Concentration” value ([1]; 24 h, animal 207664) of the same molecule?
The value was “BQL (BQL = Below lower limit of quantitation (0.0500 ng/mL for Compound 18 and 0.150 ng/mL for Compound 4))”.

And the “Day 1 Compound 4 Plasma Concentration” value ([1]; 24 h, animal 207665)?
Its value is “BQL (BQL = Below lower limit of quantitation (0.0500 ng/mL for Compound 18 and 0.150 ng/mL for Compound 4))”.

What about the “Day 7 Compound 4 Plasma Concentration” value ([1]; 24 h, animal 207665) of the same molecule?
The value was “BQL (BQL = Below lower limit of quantitation (0.0500 ng/mL for Compound 18 and 0.150 ng/mL for Compound 4))”.

What about the “Day 1 Compound 4 Plasma Concentration” value ([1]; 24 h, animal 207666) of the same molecule?
Its value is “BQL (BQL = Below lower limit of quantitation (0.0500 ng/mL for Compound 18 and 0.150 ng/mL for Compound 4))”.

And the “Day 7 Compound 4 Plasma Concentration” value ([1]; 24 h, animal 207666)?
The value was “BQL (BQL = Below lower limit of quantitation (0.0500 ng/mL for Compound 18 and 0.150 ng/mL for Compound 4))”.

And the “Day 1 Compound 4 Plasma Concentration” value ([1]; 24 h, animal 207667)?
The value was “BQL (BQL = Below lower limit of quantitation (0.0500 ng/mL for Compound 18 and 0.150 ng/mL for Compound 4))”.

And the “Day 7 Compound 4 Plasma Concentration” value ([1]; 24 h, animal 207667)?
Its value is “BQL (BQL = Below lower limit of quantitation (0.0500 ng/mL for Compound 18 and 0.150 ng/mL for Compound 4))”.
